Reference: article PMC4618636 (Pharmacology Research & Perspectives, 2015)
Where two headings read alike, the source gives them in different places.

Assays:
CYP2B6 [1] = biological target: T1, CYP2B6 (Homo sapiens, UniProt P20813); assay: in vitro; conditions: hepatocytes, percentage inhibition, CYP2B6, OH-Bup, 1 mmol/L ABT, Lab 2
T1 sequence (P20813 1-491): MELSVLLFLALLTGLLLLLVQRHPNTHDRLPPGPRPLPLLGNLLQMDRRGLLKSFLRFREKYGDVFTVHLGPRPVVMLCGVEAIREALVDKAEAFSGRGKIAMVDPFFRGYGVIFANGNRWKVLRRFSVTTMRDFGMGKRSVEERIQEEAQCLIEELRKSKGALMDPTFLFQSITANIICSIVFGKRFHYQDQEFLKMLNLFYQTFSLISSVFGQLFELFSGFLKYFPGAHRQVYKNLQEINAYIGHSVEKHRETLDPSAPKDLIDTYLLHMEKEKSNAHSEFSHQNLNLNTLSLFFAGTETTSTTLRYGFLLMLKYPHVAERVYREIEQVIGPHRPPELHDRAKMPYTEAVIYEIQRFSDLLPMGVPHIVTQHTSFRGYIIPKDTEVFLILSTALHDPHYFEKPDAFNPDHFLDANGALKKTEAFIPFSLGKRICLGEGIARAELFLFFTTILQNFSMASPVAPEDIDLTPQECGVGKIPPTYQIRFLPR

CYP2C9 = CYP2C9 (Homo sapiens, UniProt P11712); assay: CYP2C9 inhibition in upcyte hepatocytes over 24 h; type: in vitro ADME; conditions: probe tolbutamide (5 μmol/L), percentage inhibition, CYP2C9, OH-Tolb, 1 mmol/L ABT, Lab 2
CYP1A2 [2] = biological target: T2, CYP1A2 (Homo sapiens, UniProt P05177); assay: CYP1A2 inhibition in upcyte hepatocytes over 24 h; type: in vitro ADME; conditions: probe phenacetin (5 μmol/L), percentage inhibition, CYP1A2, APAP, 1 mmol/L ABT, Lab 2
T2 sequence (P05177 1-516): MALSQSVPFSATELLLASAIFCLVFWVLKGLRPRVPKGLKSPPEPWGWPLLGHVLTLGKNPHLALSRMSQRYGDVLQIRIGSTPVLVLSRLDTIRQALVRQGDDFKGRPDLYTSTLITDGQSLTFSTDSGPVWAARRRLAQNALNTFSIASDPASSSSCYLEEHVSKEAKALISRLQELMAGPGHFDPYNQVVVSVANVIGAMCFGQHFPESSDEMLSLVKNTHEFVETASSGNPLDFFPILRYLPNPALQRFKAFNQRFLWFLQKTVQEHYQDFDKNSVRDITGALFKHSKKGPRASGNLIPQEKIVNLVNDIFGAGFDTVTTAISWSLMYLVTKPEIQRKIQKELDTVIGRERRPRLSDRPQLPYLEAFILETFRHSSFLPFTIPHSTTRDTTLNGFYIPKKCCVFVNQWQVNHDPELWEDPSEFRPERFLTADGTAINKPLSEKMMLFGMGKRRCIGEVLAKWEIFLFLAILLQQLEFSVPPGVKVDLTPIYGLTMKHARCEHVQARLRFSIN

CYP3A4 [3] = biological target: CYP3A4 (Homo sapiens, UniProt P08684); assay: in vitro; conditions: upcyte hepatocytes, probe midazolam (5 μmol/L), percentage inhibition, CYP3A4, 1′OH-MID +1′OH-MID-G, 1 mmol/L ABT, Lab 2
CYP3A4 [4] = conditions: in vivo induction value used for the RIS calibration; cited from earlier work
CYP2B6 [5] = conditions: for CYP2B6 Indmax: mean from two experiments; for CYP2B6 % PB: relative to positive control phenobarbital, equation 2
CYP1A2 [6] = assay: CYP1A2 preinduction by omeprazole in upcyte hepatocytes; conditions: daily 100 μmol/L omeprazole for 3 days
CYP3A4 [7] = conditions: for CYP3A4 Indmax: mean from two experiments; for CYP3A4 % Rif: relative to positive control rifampicin, equation 2

CYP3A4 (Homo sapiens, UniProt P08684), sequence (P08684 whole entry): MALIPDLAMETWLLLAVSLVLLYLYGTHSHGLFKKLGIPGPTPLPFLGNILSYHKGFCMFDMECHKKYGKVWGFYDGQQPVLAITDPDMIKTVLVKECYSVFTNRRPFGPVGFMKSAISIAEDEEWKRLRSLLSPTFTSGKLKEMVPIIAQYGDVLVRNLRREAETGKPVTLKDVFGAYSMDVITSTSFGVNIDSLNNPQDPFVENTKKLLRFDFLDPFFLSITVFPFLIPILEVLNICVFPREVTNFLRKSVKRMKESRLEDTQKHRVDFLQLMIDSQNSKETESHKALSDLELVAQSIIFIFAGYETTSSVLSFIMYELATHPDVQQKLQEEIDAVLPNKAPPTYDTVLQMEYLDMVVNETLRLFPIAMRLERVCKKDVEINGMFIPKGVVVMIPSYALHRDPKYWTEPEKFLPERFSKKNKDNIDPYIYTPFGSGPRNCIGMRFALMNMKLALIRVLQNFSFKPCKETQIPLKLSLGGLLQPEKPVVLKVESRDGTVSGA
CYP2C9, sequence (P11712 whole entry): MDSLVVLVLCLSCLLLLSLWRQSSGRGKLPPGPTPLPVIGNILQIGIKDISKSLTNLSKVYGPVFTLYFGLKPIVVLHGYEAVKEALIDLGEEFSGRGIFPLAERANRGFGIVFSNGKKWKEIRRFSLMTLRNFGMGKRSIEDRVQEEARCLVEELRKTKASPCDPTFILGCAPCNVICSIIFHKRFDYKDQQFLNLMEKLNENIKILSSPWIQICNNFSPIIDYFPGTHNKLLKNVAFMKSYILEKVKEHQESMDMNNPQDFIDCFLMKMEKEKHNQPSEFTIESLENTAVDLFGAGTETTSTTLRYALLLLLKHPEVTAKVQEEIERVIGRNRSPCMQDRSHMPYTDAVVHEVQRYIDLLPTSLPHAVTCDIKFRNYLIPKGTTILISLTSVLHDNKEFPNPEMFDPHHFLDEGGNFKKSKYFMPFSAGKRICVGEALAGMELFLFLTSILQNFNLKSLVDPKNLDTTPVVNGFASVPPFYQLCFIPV

Nn1nnc2ccccc21 [ABT, 1-aminobenzotriazole]
inhibition at 1 mmol/L (CYP2B6 [1]; Donor 151-03, 0–6 h): 85%
inhibition at 24 h, 1 mmol/L (CYP2B6 [1]; Donor 151-03, 24 h): 94%
inhibition at 1 mmol/L (CYP2B6 [1]; Donor 422A-03, 0–6 h): 90%
inhibition at 24 h, 1 mmol/L (CYP2B6 [1]; Donor 422A-03, 24 h): 94%
inhibition at 1 mmol/L (CYP2B6 [1]; Donor 653-03, 0–6 h): 94%
inhibition at 24 h, 1 mmol/L (CYP2B6 [1]; Donor 653-03, 24 h): 97%
inhibition at 1 mmol/L (CYP2C9; Donor 151-03, 0–6 h): 100%
inhibition at 24 h, 1 mmol/L (CYP2C9; Donor 151-03, 24 h): 98%
inhibition at 1 mmol/L (CYP2C9; Donor 422A-03, 0–6 h): 100%
inhibition at 24 h, 1 mmol/L (CYP2C9; Donor 422A-03, 24 h): 100%
inhibition at 1 mmol/L (CYP2C9; Donor 653-03, 0–6 h): 95%
inhibition at 24 h, 1 mmol/L (CYP2C9; Donor 653-03, 24 h): 99%
inhibition at 1 mmol/L (CYP1A2 [2]; Donor 151-03, 0–6 h): 100%
inhibition at 24 h, 1 mmol/L (CYP1A2 [2]; Donor 151-03, 24 h): 100%
inhibition at 1 mmol/L (CYP1A2 [2]; Donor 422A-03, 0–6 h): 100%
inhibition at 24 h, 1 mmol/L (CYP1A2 [2]; Donor 422A-03, 24 h): 98%
inhibition at 1 mmol/L (CYP1A2 [2]; Donor 653-03, 0–6 h): 95%
inhibition at 24 h, 1 mmol/L (CYP1A2 [2]; Donor 653-03, 24 h): 96%
inhibition at 1 mmol/L (CYP3A4 [3]; Donor 151-03, 0–6 h): 99%
inhibition at 24 h, 1 mmol/L (CYP3A4 [3]; Donor 151-03, 24 h): 97%
inhibition at 1 mmol/L (CYP3A4 [3]; Donor 422A-03, 0–6 h): 98%
inhibition at 24 h, 1 mmol/L (CYP3A4 [3]; Donor 422A-03, 24 h): 98%
inhibition at 1 mmol/L (CYP3A4 [3]; Donor 653-03, 0–6 h): 98%
inhibition at 24 h, 1 mmol/L (CYP3A4 [3]; Donor 653-03, 24 h): 98%

COc1ccc2[nH]c([S+]([O-])Cc3ncc(C)c(OC)c3C)nc2c1 (stereo not shown) [Omeprazole, omeprazole]
% Decrease in midazolam AUC (CYP3A4 [4]): 0%
CYP2B6 Indmax (CYP2B6 [5]; upcyte Donor 10-03): 2.0 fold
CYP2B6 % PB (CYP2B6 [5]; upcyte Donor 10-03): 31%
CYP2B6 Indmax (CYP2B6 [5]; upcyte Donor 151-03): No induction
CYP2B6 % PB (CYP2B6 [5]; upcyte Donor 151-03): No induction
CYP2B6 Indmax (CYP2B6 [5]; upcyte Donor 653-03): 2.2 fold
CYP2B6 % PB (CYP2B6 [5]; upcyte Donor 653-03): 56%
induced CYP1A2 activity (CYP1A2 [6]; Donor 10-03): 57.1 ± 17.1 pmol/min/mg protein
induced CYP1A2 activity (CYP1A2 [6]; Donor 151-03): 83.8 ± 21.7 pmol/min/mg protein
induced CYP1A2 activity (CYP1A2 [6]; Donor 422A-03): 205.0 ± 44.9 pmol/min/mg protein
CYP3A4 Indmax (CYP3A4 [7]; upcyte Donor 10-03): 2.3 fold
CYP3A4 % Rif (CYP3A4 [7]; upcyte Donor 10-03): 4%
CYP3A4 Indmax (CYP3A4 [7]; upcyte Donor 151-03): 3.1 fold
CYP3A4 % Rif (CYP3A4 [7]; upcyte Donor 151-03): 34%
CYP3A4 Ind50 (CYP3A4 [7]; upcyte Donor 653-03, column headed Ind50 in Table 5): 5
CYP3A4 Indmax (CYP3A4 [7]; upcyte Donor 653-03): 1.5 fold
